Test results from patent US20100167260A1, “Use of N-Piperidine Derivative Compositions for Protecting Biological Systems” (MEDESTEA RESEARCH & PRODUCTION SPA, priority 2006, published 2010).

Legend:
rabbit heart [1] = assay: Rabbit heart cold preservation (24 h, 4° C.) and Langendorff reperfusion: developed pressure
Procedure: Male New Zealand rabbits (1.4-1.8 kg weight) were kept on a standard laboratory diet supplemented with “Nossan pellet” (both the animals and pellets are available from Nossan Company, Milan, Italy) and were housed for three weeks (relative humidity 50% ±10%, temperature 22° C.±1° C. and in a light/darkness cycle of 12 hours/12 hours, with first light at 7.30 a.m.) prior to the experiments; food and water were available ad libitum.
The hearts were quickly excised from anesthetized animals (55 mg/kg body weight sodium pentobarbital; ten rabbits for each experiment group were used) flushed with the respective experimental solutions and placed in either cold (4° C.) Celsior and Celsior plus 5 mM MP1001 or Celsior plus GSH 5 mM for 24 hours. Because Celsior standard solution contains 3 mM reduced glutathione (GSH), comparative experiments in term of “total antioxidant power” using equimolar antioxidant amount (e.g. adding 5 mM MP1001 or 5 mM GSH to Celsior) were performed. […]
After 24 hours of cold preservation and reperfusion for 1 hour, the developed pressure (as a measure of protection) of the hearts preserved in Celsior (standard/control) was a mean of 34±9.55 mmHg. […] We determined that this level of recovery was not sufficient and proceeded to add the cardioprotective antioxidant MP1001 (5 mM) or GSH (5 mM, to have a final, equimolar 8 mM “antioxidant concentration”).

rabbit heart [2] = assay: Lipid peroxidation (MDA release) in rabbit hearts after 1 h reperfusion
Procedure: (§1) The hearts were quickly excised from anesthetized animals (55 mg/kg body weight sodium pentobarbital; ten rabbits for each experiment group were used) flushed with the respective experimental solutions and placed in either cold (4° C.) Celsior and Celsior plus 5 mM MP1001 or Celsior plus GSH 5 mM for 24 hours. Because Celsior standard solution contains 3 mM reduced glutathione (GSH), comparative experiments in term of “total antioxidant power” using equimolar antioxidant amount (e.g. adding 5 mM MP1001 or 5 mM GSH to Celsior) were performed.
(§2) At the end of cold preservation, the organs were then reperfused in a Langerdoff working heart model with oxygenated Krebs-Henseleit buffer (120 mM NaCl, 25 mM NaHCO3, 4.9 mM KCl, 1.2 mM KH2PO4, 2.5 mM CaCl2, 1.25 MgSO4 and 10 mM glucose). The buffers were bubbled regularly with a mixture of O2 (95%) and CO2 (5%); the CO2 helped maintain the buffer at a physiological pH (7.4). In the mean time, the apparatus had extensive water-jacketing connected to a water heater that maintained buffers and hearts at 37° C. The buffers was filtered through a Gelman GA-4, 0.8 μm metrical, membrane before the use. […]
(§3) Lipid peroxidation was determined by quantification of the release of malondialdeyde (MDA) accumulated in cells which was used as biomarker, essentially according to Buege Y. A. & Aust S. G., Method Enzymol. […]

rabbit heart [3] = assay: Carbonyl proteins in rabbit hearts after 1 h reperfusion
Procedure: as §1, §2, §3

rabbit heart [4] = assay: LDH levels in the perfusate of rabbit hearts after 1 h reperfusion
Procedure: as §1, §2, §3

rabbit heart [5] = assay: Histopathological analysis of rabbit hearts after 1 h reperfusion; details: hearts stored in Celsior plus 5 mM MP1001 as compared to GSH
Procedure: as §1
as §2, with “use. A saline-filled latex balloon connected through a pressure transducer to a polygraph recorder was inserted into the left ventricle through a left atriotomy and secured by a suture to the mitrial annulus.” for “use.”

[6] = rabbit hearts, 24 h cold preservation in Celsior (additive 5 mM where given)

Compound | developed pressure (rabbit heart [1]; rabbit hearts, 24 hours cold (4° C.) preservation in Celsior (additive 5 mM where given), reperfusion for 1 hour) [mmHg] | lipid peroxidation (malondialdeyde, MDA) (rabbit heart [2]; [6]) | carbonyl proteins (rabbit heart [3]; [6]) | LDH levels in the perfusate (rabbit heart [4]; [6]) | histopathological analysis (myocyte injury, edema, endotelial damage) (rabbit heart [5]) | protection (developed pressure) compared to standard Celsior solution (rabbit heart [1]; 5 mM added to Celsior (8 mM GSH final), 24 hours cold preservation, 1 h reperfusion) | effect on lipid peroxidation vs standard Celsior (rabbit heart [2]; additional 5 mM in Celsior) | effect on carbonyl proteins vs standard Celsior (rabbit heart [3]; 5 mM supplement in Celsior) | effect on LDH vs standard Celsior (rabbit heart [4]; 5 mM supplement in Celsior)
CC1(C)CC(OC(=O)CCCCCCCCC(=O)OC2CC(C)(C)N(O)C(C)(C)C2)CC(C)(C)N1O [MP1001, bis(1-hydroxy-2,2,6,6-tetramethyl-4-piperidinyl)decandioate] | 88±9.02 | 0.31±0.10 | 48±11 | 0.3±0.1 | Hearts sustained less injury by all criteria examined | – | – | – | –
N[C@@H](CCC(=O)N[C@@H](CS)C(=O)NCC(=O)O)C(=O)O [GSH, reduced glutathione, reference compound] | – | – | – | – | – | did not provide any additional protection | did not significantly modify this parameter | not modified | not modified
